Drawing on US7759337B2, “Phthalazine compounds and methods of use” (Amgen Inc., priority 2005, dated 2010), this text covers IC50 for 31 compounds.

The subject of the test is production of TNF by monocytes activated with bacterial lipopolysaccharide (LPS). Put plainly: Lipopolysaccharide-activated monocyte TNF production assay. It is filed as cell-based. The settings on record: Homo sapiens; whole blood monocyte assay (LPS induced TNF release). The procedure: Test compounds were evaluated in vitro for the ability to inhibit the production of TNF by monocytes activated with bacterial lipopolysaccharide (LPS). Fresh residual source leukocytes (a byproduct of plateletpheresis) were obtained from a local blood bank, and peripheral blood mononuclear cells (PBMCs) were isolated by density gradient centrifugation on Ficol-Paque Plus (Pharmacia). PBMCs were suspended at 2×10^6/mL in DMEM supplemented to contain 2% FCS, 10 mM, 0.3 mg/mL […], 100 U/mL penicillin G and […] streptomycin sulfate (complete media). Cells were plated into Falcon flat bottom, 96 well culture plates (200 μL/well) and cultured overnight at 37° C. and 6% CO2. Non-adherent cells were removed by washing with 200 μl/well of fresh medium.
Test compounds were dissolved in […]. Compound stock solutions were prepared to an initial concentration of […]. Stocks were diluted initially to 20-200 μM in complete media. Nine two-fold serial dilutions of each compound were then prepared in complete medium.
One hundred microliters of each test compound dilution were added to microtiter wells containing adherent monocytes and 100 μL complete medium. Monocytes were cultured with test compounds for 60 min at which time 25 μL of complete medium containing 30 ng/mL lipopolysaccharide from E. coli K532 were added to each well. Cells were cultured an additional 4 hrs. Culture supernatants were then removed and TNF presence in the supernatants was quantified using an ELISA.
Flat bottom, 96 well Corning High Binding ELISA plates were coated overnight (4° C.) with 150 μL/well of 3 μg/mL murine anti-human TNF-α MAb (R&D Systems #MAB210). Wells were then blocked for 1 h at room temperature with 200 μL/well of CaCl2-free ELISA buffer supplemented to contain 20 mg/mL BSA (standard ELISA buffer: […], 150 mM NaCl, 2 mM CaCl2, 0.15 mM thimerosal, pH 7.4). Plates were washed and replenished with 100 μL of test supernatants (diluted 1:3) or standards. Standards consisted of eleven 1.5-fold serial dilutions from a stock of I ng/mL recombinant human TNF (R&D Systems). Plates were incubated at room temperature for 1 h on orbital shaker (300 rpm), washed and replenished with 100 μL/well of 0.5 μg/mL goat anti-human TNF-α (R&D systems #AB-210-NA) biotinylated at a 4:1 ratio. Plates were incubated for 40 min, washed and replenished with 100 μL/well of alkaline phosphatase-conjugated streptavidin (Jackson ImmunoResearch #016-050-084) at 0.02 μg/mL. Plates were incubated 30 min, washed and replenished with 200 μL/well of 1 mg/mL of p-nitrophenyl phosphate. After 30 min, plates were read at 405 nm on a Vmax plate reader.
Standard curve data were fit to a second order polynomial and unknown TNF-α concentrations determined from their OD by solving this equation for concentration. TNF concentrations were then plotted vs. test compound concentration using a second order polynomial. This equation was then used to calculate the concentration of test compounds causing a 50% reduction in TNF production.

Molecules are shown by their SMILES.

Turning to `Cc1ccc(C(N)=O)cc1-c1ccc2c(N3CCN4CCC[C@H]4C3)nncc2c1` [Example 282, 3-{1-[(8aS)-hexahydropyrrolo[1,2-a]pyrazin-2(1H)-yl]phthalazin-6-yl}-4-methylbenzamide], the IC50 (usually the concentration at which inhibition is half-maximal) was at most 5 µM.

The compound `Cc1ccc(C(=O)NC2CC2)cc1-c1ccc2c(N3CCCC[C@@H]3C)nncc2c1` [Example 97, N-cyclopropyl-4-methyl-3-{1-[(2S)-2-methylpiperidin-1-yl]phthalazin-6-yl}benzamide] returned an IC50 of at most 5 µM.

`Cc1cc(NC(=O)c2ccc(C)c(-c3ccc4c(N5CCOCC5)nncc4c3)c2)no1` [Example 380, 4-methyl-N-(5-methylisoxazol-3-yl)-3-(1-morpholin-4-ylphthalazin-6-yl)benzamide] displayed an IC50 of at most 5 µM.

Turning to `Cc1ccc(C(N)=O)cc1-c1ccc2c(N3CCN4C(=O)OC[C@H]4C3)nncc2c1` [Example 284, 3-{1-[(8aR)-3-oxotetrahydro[1,3]oxazolo[3,4-a]pyrazin-7(1H)-yl]phthalazin-6-yl}-4-methylbenzamide], the IC50 was at most 5 µM.

In turn, `Cc1ccc(C(=O)NC2CC2)cc1-c1ccc2c(-c3ccc(C(F)(F)F)cc3)nncc2c1` [Example 249, N-cyclopropyl-4-methyl-3-{1-[4-(trifluoromethyl)phenyl]phthalazin-6-yl}benzamide] registered an IC50 of at most 5 µM.

As to `Fc1ccc(Oc2ccc3c(-c4ccccc4Cl)nncc3c2)cc1` [Example 12, 1-(2-chlorophenyl)-6-(4-fluorophenoxy)phthalazine], the IC50 is at most 5 µM.

For `Cc1ccc(C(=O)NC2CC2)cc1-c1ccc2c(N3CCC[C@H]3C(F)(F)F)nncc2c1` [Example 273, N-cyclopropyl-4-methyl-3-{1-[(2S)-2-(trifluoromethyl)pyrrolidin-1-yl]phthalazin-6-yl}benzamide], the IC50 was at most 5 µM.

`Cc1ccc2c(NC(C)(C)C)noc2c1-c1ccc2c(N3CCOC[C@@H]3C)nncc2c1` [Example 381, N-(tert-butyl)-6-methyl-7-{1-[(3S)-3-methylmorpholin-4-yl]phthalazin-6-yl}-1,2-benzisoxazol-3-amine]: the IC50 is at most 5 µM.

For the compound `Cc1ccc(C(N)=O)cc1-c1ccc2c(-c3ccccc3C(F)(F)F)nncc2c1` [Example 220, 4-methyl-3-{1-[2-(trifluoromethyl)phenyl]phthalazin-6-yl}benzamide], the IC50 is at most 5 µM.

As for `CONC(=O)c1ccc(C)c(-c2ccc3c(NC(C)C)nncc3c2)c1` [Example 279, 3-[1-(isopropylamino)phthalazin-6-yl]-N-methoxy-4-methylbenzamide], the IC50 was at most 5 µM.

For the compound `CCNC(=O)c1ccc(C)c(-c2ccc3c(CC(C)C)nncc3c2)c1` [Example 361, N-ethyl-3-(1-isobutylphthalazin-6-yl)-4-methylbenzamide], the IC50 is at most 5 µM.

Turning to `CC(=O)N1CCN(c2nncc3cc(-c4cc(C(=O)N(C(C)=O)C5CC5)ccc4C)ccc23)CC1` [Example 66, N-acetyl-3-(1-(4-acetylpiperazin-1-yl)phthalazin-6-yl)-N-cyclopropyl-4-methylbenzamide], the IC50 is at most 5 µM.

In turn, `Cc1ccc(C(=O)NC2CC2)cc1-c1ccc2c(N3CC[C@H]4CCCC[C@H]4C3)nncc2c1` [Example 136, 3-{1-[(4aR,8aR)-octahydroisoquinolin-2(1H)-yl]phthalazin-6-yl}-N-cyclopropyl-4-methylbenzamide] registered an IC50 of at most 5 µM.

Regarding `CNc1noc2c(-c3ccc4c(O[C@@H](C)COC)nncc4c3)c(C)ccc12` [Example 330, N,6-dimethyl-7-(1-(((1S)-1-methyl-2-(methyloxy)ethyl)oxy)-6-phthalazinyl)-1,2-benzisoxazol-3-amine], the IC50 is at most 5 µM.

With `Cc1ccc2c(N)n[nH]c2c1-c1ccc2c(N3CCOC[C@@H]3C)nncc2c1` [Example 391, 6-methyl-7-{1-[(3S)-3-methylmorpholin-4-yl]phthalazin-6-yl}-1H-indazol-3-amine], the IC50 is at most 5 µM.

In turn, `Cc1ccc(C(=O)NC2CC2)cc1-c1ccc2c(N3CCN[C@H](C)C3)nncc2c1` [Example 140, N-cyclopropyl-4-methyl-3-{1-[(3R)-3-methylpiperazin-1-yl]phthalazin-6-yl}benzamide] registered an IC50 of at most 5 µM.

In turn, `CCNC(=O)N1CCN(c2nncc3cc(-c4cc(C(=O)NC5CC5)ccc4C)ccc23)CC1` [Example 129, 4-(6-{5-[(cyclopropylamino)carbonyl]-2-methylphenyl}phthalazin-1-yl)-N-ethylpiperazine-1-carboxamide] yielded an IC50 of at most 5 µM.

On to `Cc1ccc(C(=O)NC2CC2)cc1-c1ccc2c(N3C[C@H](C)N(CC(F)(F)F)C[C@H]3C)nncc2c1` [Example 376, N-cyclopropyl-3-{1-[(2R,5S)-2,5-dimethyl-4-(2,2,2-trifluoroethyl)piperazin-1-yl]phthalazin-6-yl}-4-methylbenzamide], for which the IC50 is at most 5 µM.

Regarding `Cc1ccc(C(=O)NC2CC2)cc1-c1ccc2c(-c3ccc(S(N)(=O)=O)cc3C)nncc2c1` [Example 218, 3-{1-[4-(aminosulfonyl)-2-methylphenyl]phthalazin-6-yl}-N-cyclopropyl-4-methylbenzamide], the IC50 was at most 5 µM.

With `Cc1ccc(-c2nnn[nH]2)cc1-c1ccc2c(N3CCOCC3)nncc2c1` [Example 77, 6-[2-Methyl-5-(1H-tetraazol-5-yl)phenyl]-1-morpholin-4-ylphthalazine], the IC50 was at most 5 µM.

`Cc1ccc(C(N)=O)cc1-c1ccc2c(-c3ccc(CN4CCOCC4)cc3)nncc2c1` [Example 203, 4-methyl-3-{1-[4-(morpholin-4-ylmethyl)phenyl]phthalazin-6-yl}benzamide] yielded an IC50 of at most 5 µM.

`Cc1ccc(Oc2nncc3cc(-c4cc(C(N)=O)ccc4C)ccc23)c(C)c1` [Example 321, 3-[1-(2,4-dimethylphenoxy)phthalazin-6-yl]-4-methylbenzamide] gave an IC50 of at most 5 µM.

As to `Cc1ccc(C(N)=O)cc1-c1ccc2c(N3CCn4c(nnc4C(F)(F)F)C3)nncc2c1` [Example 294, 4-methyl-3-{1-[3-(trifluoromethyl)-5,6-dihydro[1,2,4]triazolo[4,3-a]pyrazin-7(8H)-yl]phthalazin-6-yl}benzamide], the IC50 is at most 5 µM.

Regarding `Cc1ccc(C(=O)NC2CC2)cc1-c1ccc2c(-c3ccc(F)cc3)nncc2c1` [Example 239, N-cyclopropyl-3-[1-(4-fluorophenyl)phthalazin-6-yl]-4-methylbenzamide], the IC50 was at most 5 µM.

Take `Cc1ccc(C(=O)NC2CC2)cc1-c1ccc2c(N3C[C@H](C)OC[C@@H]3C)nncc2c1` [Example 123, N-cyclopropyl-3-{1-[(2S,5S)-2,5-dimethylmorpholin-4-yl]phthalazin-6-yl}-4-methylbenzamide]: the IC50 was at most 5 µM.

In turn, `Cc1ccccc1Oc1nncc2cc(-c3cc(C(N)=O)ccc3C)ccc12` [Example 299, 4-methyl-3-[1-(2-methylphenoxy)phthalazin-6-yl]benzamide] registered an IC50 of at most 5 µM.

With `Cc1ccc(-c2nncc3cc(-c4cc(C(=O)NC5CC5)ccc4C)ccc23)c(Cl)n1` [Example 212, 3-[1-(2-chloro-6-methylpyridin-3-yl)phthalazin-6-yl]-N-cyclopropyl-4-methylbenzamide], the IC50 was at most 5 µM.

Take `Cc1ccc(C(N)=O)cc1-c1ccc2c(N3CCCOCC3)nncc2c1` [Example 270, 4-methyl-3-[1-(1,4-oxazepan-4-yl)phthalazin-6-yl]benzamide]: the IC50 was at most 5 µM.

In the case of `Cc1ccc(C(=O)NC2CC2)cc1-c1ccc2c(C(C)C)nncc2c1` [Example 13, N-Cyclopropyl-3-(1-isopropylphthalazin-6-yl)-4-methylbenzamide], the IC50 is at most 5 µM.

In the case of `Cc1ccc(C(N)=O)cc1-c1ccc2c(N(C)C)nncc2c1` [Example 281, 3-[1-(dimethylamino)phthalazin-6-yl]-4-methylbenzamide], the IC50 is at most 5 µM.

Consider `Cc1ccc(C(=O)NC2CC2)cc1-c1ccc2c(N3C[C@@H](C)NC[C@@H]3C)nncc2c1` [Example 147, N-cyclopropyl-3-{1-[(2S,5R)-2,5-dimethylpiperazin-1-yl]phthalazin-6-yl}-4-methylbenzamide], for which the half-inhibitory concentration (IC50) is at most 5 µM.
